From BindingDB's records for doi:10.1021/acs.jnatprod.6b01177 (Hirosaki University, 2017)

How the values were obtained:
[1] = Inhibition of human erythrocyte 20s proteasome caspase-like activity using Z-LLE-MCA as substrate pretreated for 10 mins followed by substrate addition measured after 3 hrs by spectrophotometric method
[2] = Inhibition of human erythrocyte 20s proteasome trypsin-like activity using Boc-LRR-MCA as substrate pretreated for 10 mins followed by substrate addition measured after 3 hrs by spectrophotometric method

- IC50 [1]: 17.3 µM
- IC50 [2]: > 50 µM
SMILES: C=C1CC[C@H]2C(C)(C)[C@H](O)CC[C@]2(C)[C@H]1CC1=C(O)C(=O)C2=C(C1=O)[C@@]13C=C[C@@H](O)[C@H](O)[C@]1(C2)C(=O)c1c(O)cc(C)cc1C3=O
